As a reminder, the GI50 is the concentration at which growth is held to half of that of the control. For orientation: IC50 means the concentration needed to halve the response being measured.

This is an account of results in patent publication US11945807B2, “Splicing modulator antibody-drug conjugates and methods of use” (EISAI R&D MANAGEMENT CO., LTD., priority 2018, dated 2024).

The subject of series [1] is TAOK1 (neojunction transcript). As to the kind of experiment: In vivo PD RT-qPCR in NCI-N87 tumors, TAOK1. Also noted: species or system CB17-SCID mice. The following applies: single IV 10 mg/kg; N=4; FIG. 24. Background: Quantitative PCR measures a nucleic acid by following its amplification.
Series [2] concerns FBXW5 (mature mRNA transcript). The experiment in a line: In vivo PD RT-qPCR in NCI-N87 tumors, FBXW5. Also noted: species or system CB17-SCID mice. The following applies: single IV 10 mg/kg; N=4; FIG. 24.
The next series concerns NCIH1568.1. As to the kind of experiment: Payload cellular potency CTGlo-ATS 72 h, NCIH1568.1. It is filed as cell-based. The following applies: cell line #2, 72 h, corresponding free payload.
Another series deals with NCIH1650.1. The experiment in a line: Payload cellular potency CTGlo-ATS 72 h, NCIH1650.1. The series is classed as cell-based. To be noted: cell line #1, 72 h, corresponding free payload.
For the next series, the target named is T1, SF3b complex (Homo sapiens, UniProt O75533+Q7RTV0).
T1 construct: The beads were suspended and added to the prepared nuclear extracts; endogenous in cells; host or cells: nuclear extracts
As to the kind of experiment: SF3B1 binding / scintillation proximity assay (SPA). Background: In a scintillation proximity assay essentially only radioactivity close to the scintillant gives light.

Series [3] can be described thus: Caco-2 permeability of ADC payload. The series is classed as in vitro ADME. The following applies: human; for Papp B→A at 2 h, 10 NM: basolateral to apical, read-out: Permeability Mean Caco-2 B-A Perm (10e−G cm/s).
The next series has as its system Caco-2 cells. The experiment in a line: Caco-2 permeability of ADC payload. It is filed as in vitro ADME. To be noted: corresponding free payload. On the technique in general: Passage across Caco-2 layers is used to estimate intestinal permeability.
For another series, the system named is PC3 cells. As to the kind of experiment: Cell viability CellTiter-Glo, PC3 (EPHA2-expressing). It is filed as cell-based. To be noted: for GI50: Homo sapiens, PC-3, free payload of the ADC; for Payload Rmin (%): free payload of the ADC.
Another series relates to N87 cells. The experiment in a line: Cell viability CellTiter-Glo, N87. It is filed as cell-based, human. The following applies: unconjugated payload of the ADC; for GI50: Homo sapiens.
The next series concerns MCF7 cells. The experiment in a line: Cell viability CellTiter-Glo, MCF7 (HER2-negative). The following applies: Homo sapiens, unconjugated payload of the ADC. The series is classed as cell-based.
Series [4] can be described thus: Chemical stability of ADC payload, pH 5.5 buffer. The series is classed as physicochemical. The following applies: for half-life at 20 μM: McIlvaine (citrate-phosphate) buffer, unconjugated payload, Citrate-Phosphate buffer pH 5.5, 37° C., read-out: Stability Mean Stability t1/2 pH5.5 (converted). The text has this:
(Eppendorf ThermoMixer). […] Time 0 was set to 100.

A further series relates to HCC1954 cells. The experiment in a line: Cell viability CellTiter-Glo, HCC1954. To be noted: Homo sapiens, HCC1954, read-out: Payload GI50 (nM).
Another series relates to THP1.1. The experiment in a line: Payload cell potency and lethality CTGlo 72 h, THP1.1. It is filed as cell-based. The following applies: for CTGlo-AT S Mean Min-Response % 72 h THP1.1: unconjugated payload.
The subject of the next series is MOLP8 cells. As to the kind of experiment: Cell viability CellTiter-Glo, MOLP8 (CD138-expressing). The series is classed as cell-based.
A further series concerns Ad2.2 pre-mRNA. The experiment in a line: In vitro splicing (IVS) RT-qPCR, HeLa nuclear extract, Ad2.2. The series is classed as biochemical. The following applies: biochemical splicing assay; corresponding free payload; read-out: qPCR-IVS-ATS GMean IC50 (nM) Ad2.2 HELA.2. The method, then: To evaluate payload activity in a cell-free system, an in vitro splicing assay was performed. The payloads were incubated with nuclear extracts and pre-mRNA substrate minigenes.
HeLa nuclear extract preparation: HeLa S3 cell pellets were resuspended in hypotonic buffer (10 mM HEPES pH 7.9, 1.5 mM MgCl2, 10 mM KCl, 0.2 mM PMSF, 0.5 mM DTT) and the suspension was brought up to a total of 5 packed cell volume (PCV). After centrifugation, the supernatant was discarded, and the cells were brought up to 3 PCV with hypotonic buffer and incubated on ice for 10 min. Cells were lysed using a dounce homogenizer and then centrifuged. […]. The nuclei were gently mixed for 30 min before centrifuging. The supernatant (nuclear extract) was then dialyzed into storage buffer (20 mM HEPES pH 7.9, 100 mM KCl, 0.2 mM EDTA, 20% glycerol, 0.2 mM PMSF, 0.5 mM DTT). Protein concentration was determined using NanoDrop 8000 UV-Vis spectrophotometer (ThermoFisher Scientific).
IVS: All Ad2-derived sequences (Pellizzoni et al. (1998) Cell 95(5):615-24) were cloned into pcDNA3.1(+) vector (Promega) using 5′ EcoRI and 3′ Xbal restriction sites. The plasmids were linearized using Xbal and used as DNA templates in in vitro transcription reactions. The FtzΔi intron-less plasmid (Luo and Reed (1999) 96(26):14937-42) was linearized using EcoRI. All RNAs were in vitro transcribed and then purified using MEGAScript T7 (Invitrogen) and MegaClear (Invitrogen) kits, respectively. For splicing reactions using Ad2 variant pre-mRNAs, 1 μL reactions were prepared using 8 μg nuclear extracts prepared from HeLa S3, 2 ng pre-mRNA, 0.2 ng FTZΔi, and varying concentrations of compounds or DMSO. After a 15 min pre-incubation at 30° C., 1 μL splicing activation buffer (0.5 mM ATP, 20 mM creatine phosphate, 1.6 mM MgCl2) was added, and the reactions were incubated for 90 min at 30° C. The reactions were then quenched with 13 μL DMSO, and 25 nL was used for RT-qPCR. RT-qPCR reactions were prepared using TaqMan RNA-to-CT 1-step kit (Life Technologies), RNA from splicing reactions, Ad2 (forward: […]; reverse: […]; probe: […]) and Ftz (forward: […]; reverse: […]; probe: […]) mRNA primer-probe sets. Prism 7 (Graphpad) was used for non-linear regression curve fitting of the formed spliced product and normalized to the control (DMSO) sample. […] In the presence of payload, a decrease in the amount of spliced product was observed.

The mark [5] stands for this setting: unconjugated payload, [3H]-pladienolide B probe displacement, read-out: SPA-AT S GMean IC50 (nM) SF381 (WT) HELA.2.
[6] abbreviates: Caco-2, unconjugated payload, apical to basolateral, 2 hours, read-out: Permeability Mean Caco-2 A-B Perm (10e−6 cm/s).
Setting [7] is: Caco-2, unconjugated payload, 2 hours.

Like-named read-outs stand apart in the source and are kept apart here.

Turning to `CC[C@H](O)[C@@H](C)C1OC1C[C@@](C)(O)/C=C/C=C(\C)[C@H]1OC(=O)C[C@H](O)CC[C@@](C)(OC)[C@@H](OC(=O)N2CCN(CCN3C(=O)C=CC3=O)CC2)/C=C/[C@@H]1C` (stereo in doubt) [ADL14-D1, (2S,3S,6S,7R,10R,E)-10-hydroxy-2-((R,2E,4E)-6-hydroxy-7-((2S,3S)-3-((2R,3S)-3-hydroxypentan-2-yl)oxiran-2-yl)-6-methylhepta-2,4-dien-2-yl)-7-methoxy-3,7-dimethyl-12-oxooxacyclododec-4-en-6-yl 4-(2-(2,5-dioxo-2,5-dihydro-1H-pyrrol-1-yl)ethyl)piperazine-1-carboxylate], the “change of TAOK1 neojunction transcript in tumor” value in series [1] was “did not exhibit statistically significant changes”. Further, in [2], the “change of FBXW5 mature mRNA transcript in tumor” value was “did not exhibit statistically significant changes”.

As for `CC[C@H](O)[C@@H](C)C1OC1C[C@@](C)(O)/C=C/C=C(\C)[C@H]1OC(=O)C[C@H](O)CC[C@@](C)(OC)[C@@H](OC(=O)N2CCNCC2)/C=C/[C@@H]1C` (stereo in doubt) [D1, (2S,3S,6S,7R,10R,E)-10-hydroxy-2-((R,2E,4E)-6-hydroxy-7-((2S,3S)-3-((2R,3S)-3-hydroxypentan-2-yl)oxiran-2-yl)-6-methylhepta-2,4-dien-2-yl)-7-methoxy-3,7-dimethyl-12-oxooxacyclododec-4-en-6-yl piperazine-1-carboxylate], in the series on NCIH1568.1, the “CTGlo-ATS GMean LD50 (nM) 72 h NCIH1568.1” value came out at 65.737 nM. Moreover, the GI50 worked out at 7.36 nM with NCIH1568.1 (read-out: CTGlo-ATS GMean GI50 (nM) 72 h NCIH1568.1); 12.1 nM with NCIH1650.1 (read-out: CTGlo-ATS GMean GI50 (nM) 72 h NCIH1650.1); 13.3 nM with PC3 cells; 7.04 nM with N87 cells; 17 nM with MCF7 cells; 1.85 nM with HCC1954 cells. The GI50 with THP1.1 (read-out: CTGlo-ATS GMean GI50 (nM) 72 h THP1.1, cell line #3, 72 h, corresponding free payload) was found to be 11.1 nM. In addition, the “CTGlo-ATS GMean LD50 (nM) 72 h NCIH1650.1” value with NCIH1650.1 was over 10000.00 nM. The IC50 on SF3b complex (target binding, corresponding free payload, read-out: SPA-ATS GMean IC50 (nM) SF3B1 (WT) HELA.2) is 6.08 nM; at SF3b complex (setting [5]) it was 6.08 nM. In series [3] (setting [6]), the Papp A→B at 2 h, 10 NM stood at 0.14 ×10⁻⁶ cm/s. In addition, in series [3] (setting [7]), the Papp B→A at 2 h, 10 NM worked out at 2.05 ×10⁻⁶ cm/s. For the same molecule, the “Perm. Mean Caco 2 A-B Perm (10e−6 cm/s)” value in the series with Caco-2 cells (A-B) was 0.14 10e−6 cm/s. Further, in the series with Caco-2 cells (B-A), the “Perm. Mean Caco 2 B-A Perm (10e−6 cm/s)” value was 2.05 10e−6 cm/s. Further, the results for the “Payload Rmin (%)” value with PC3 cells and in the series on N87 cells were −71.987% and −40.041%, respectively. Moreover, the half-life at 20 μM in series [4] was 94.8 h. The “CTGlo-AT S Mean Min-Response % 72 h THP1.1” value in the series with THP1.1 is given as −100.615%.

For the molecule `CC[C@H](O)[C@@H](C)[C@H]1O[C@@H]1C[C@@](C)(O)/C=C/C=C(\C)[C@H]1OC(=O)C[C@H](O)CC[C@@](C)(OC(C)=O)[C@@H](OC(=O)N2CCN(C(=O)OCc3ccc(NC(=O)[C@H](CCCNC(N)=O)NC(=O)[C@@H](NC(=O)CCCCCN4C(=O)C=CC4=O)C(C)C)cc3)CC2)/C=C/[C@@H]1C` [ADL1-D4], the “change of TAOK1 neojunction transcript in tumor” value in series [1] is listed as “significant increases”. In addition, the “change of FBXW5 mature mRNA transcript in tumor” value in series [2] is given as “significant depletion”.

As to `CC[C@H](O)[C@@H](C)[C@H]1O[C@@H]1C[C@@](C)(O)/C=C/C=C(\C)[C@H]1OC(=O)C[C@H](O)CC[C@@](C)(OC)[C@@H](OC(=O)N2CCN(C)CC2)/C=C/[C@@H]1C` [D2, (2S,3S,6S,7R,10R,E)-10-hydroxy-2-((R,2E,4E)-6-hydroxy-7-((2R,3R)-3-((2R,3S)-3-hydroxypentan-2-yl)oxiran-2-yl)-6-methylhepta-2,4-dien-2-yl)-7-methoxy-3,7-dimethyl-12-oxooxacyclododec-4-en-6-yl 4-methylpiperazine-1-carboxylate], at SF3b complex (setting [5]), the IC50 worked out at 15.5 nM. For the same molecule, the Papp A→B at 2 h, 10 NM in series [3] (Caco-2, A-B, corresponding payload (Table 26), read-out: Permeability Caco-2 A-B (10e−6 cm/s)) was 0.6 ×10⁻⁶ cm/s; in [3] (setting [6]), 0.624 ×10⁻⁶ cm/s. Also, in series [3] (setting [7]), the Papp B→A at 2 h, 10 NM was 14.2 ×10⁻⁶ cm/s. Also, the GI50 worked out at 2.39 nM with PC3 cells; 0.749 nM in the series on N87 cells; 2.85 nM in the series on MCF7 cells; 0.6 nM in the series on HCC1954 cells; 0.316 nM in the series on MOLP8 cells (Homo sapiens, MOLP-8, unconjugated payload of the ADC in the row, read-out: Payload GI50). The “Payload Rmin (%)” value in the series on PC3 cells is −68.803%; with N87 cells, −72.706%; in the series on MOLP8 cells (unconjugated payload of the ADC), −100.198%. Besides, in series [4], the half-life at 20 μM is 96 h. Further, the “pH 5.5 Stability (t1/2, 37 C.)” value in series [4] (pH 5.5, 37 C., corresponding payload) stood at 4. Also, the “CTGlo-AT S Mean Min-Response % 72 h THP1.1” value with THP1.1 is reported as −100.218%.

On to `CC[C@H](O)[C@@H](C)[C@H]1O[C@@H]1C[C@@](C)(O)/C=C/C=C(\C)[C@H]1OC(=O)C[C@H](O)CC[C@@](C)(OC(C)=O)[C@@H](OC(=O)N2CCN(CCN)CC2)/C=C/[C@@H]1C` [D3, (2S,3S,6S,7R,10R,E)-7-acetoxy-10-hydroxy-2-((R,2E,4E)-6-hydroxy-7-((2R,3R)-3-((2R,3S)-3-hydroxypentan-2-yl)oxiran-2-yl)-6-methylhepta-2,4-dien-2-yl)-3,7-dimethyl-12-oxooxacyclododec-4-en-6-yl 4-(2-aminoethyl)piperazine-1-carboxylate], for which, in the series on Ad2.2 pre-mRNA, the IC50 worked out at 10.9 nM.

With `CC[C@H](O)[C@@H](C)[C@H]1O[C@@H]1C[C@@](C)(O)/C=C/C=C(\C)[C@H]1OC(=O)C[C@H](O)CC[C@@](C)(OC(C)=O)[C@@H](OC(=O)N2C[C@@H]3C[C@H]2CN3)/C=C/[C@@H]1C` [D5, (2S,3S,6S,7R,10R,E)-7-acetoxy-10-hydroxy-2-((R,2E,4E)-6-hydroxy-7-((2R,3R)-3-((2R,3S)-3-hydroxypentan-2-yl)oxiran-2-yl)-6-methylhepta-2,4-dien-2-yl)-3,7-dimethyl-12-oxooxacyclododec-4-en-6-yl (1S,4S)-2,5-diazabicyclo[2.2.1]heptane-2-carboxylate], the IC50 in the series on Ad2.2 pre-mRNA is 23.9 nM.
